Patent US20260297081A1, “COMPOUNDS AND METHODS OF TREATING CANCERS” (Cullgen Inc., priority 2023, published 2026)

Target: CDK4 (Homo sapiens, UniProt P11802+Q16531)
Assay: CDK4 percentage degradation in Calu-1 cells (Table 6)
Type: cell-based
Design: Cells that express cyclin D1-3 and CDK4/6 proteins were treated with heterobifunctional compounds; endogenous in cells; host or cells: Calu-1
Settings: 16 hours; for inhibition at 0.04 µM: 40 nM; for inhibition at 0.2 µM: 200 nM
Procedure, shortened: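 Calu-1 cells exposed to heterobifunctional compounds at 40 nM or 200 nM for 16 h. Cyclin D1 and CDK4 levels measured by Western blot of RIPA lysates (BCA-normalised loading), bands quantified by densitometry and expressed as percentage degradation.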

Sequence of CDK4 (P11802 2-303 limits assumed): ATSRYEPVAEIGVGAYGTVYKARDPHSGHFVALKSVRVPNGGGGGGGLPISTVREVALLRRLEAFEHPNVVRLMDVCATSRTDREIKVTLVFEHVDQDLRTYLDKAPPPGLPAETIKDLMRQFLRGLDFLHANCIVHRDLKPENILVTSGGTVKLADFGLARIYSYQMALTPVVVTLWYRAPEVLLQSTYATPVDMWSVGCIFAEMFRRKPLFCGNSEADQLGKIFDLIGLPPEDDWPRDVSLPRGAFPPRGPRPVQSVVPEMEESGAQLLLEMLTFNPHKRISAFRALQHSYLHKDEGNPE
Sequence of CDK4 (P24385 whole entry partner): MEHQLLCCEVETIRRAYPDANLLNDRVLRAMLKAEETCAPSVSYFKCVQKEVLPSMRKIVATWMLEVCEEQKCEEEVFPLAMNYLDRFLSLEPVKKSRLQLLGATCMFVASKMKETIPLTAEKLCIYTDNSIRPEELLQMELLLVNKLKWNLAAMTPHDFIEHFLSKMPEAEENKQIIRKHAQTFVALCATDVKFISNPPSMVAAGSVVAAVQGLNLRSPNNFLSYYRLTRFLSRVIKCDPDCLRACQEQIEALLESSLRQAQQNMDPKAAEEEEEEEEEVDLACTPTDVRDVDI
Sequence of CDK4 (Q16531 2-1140 limits assumed): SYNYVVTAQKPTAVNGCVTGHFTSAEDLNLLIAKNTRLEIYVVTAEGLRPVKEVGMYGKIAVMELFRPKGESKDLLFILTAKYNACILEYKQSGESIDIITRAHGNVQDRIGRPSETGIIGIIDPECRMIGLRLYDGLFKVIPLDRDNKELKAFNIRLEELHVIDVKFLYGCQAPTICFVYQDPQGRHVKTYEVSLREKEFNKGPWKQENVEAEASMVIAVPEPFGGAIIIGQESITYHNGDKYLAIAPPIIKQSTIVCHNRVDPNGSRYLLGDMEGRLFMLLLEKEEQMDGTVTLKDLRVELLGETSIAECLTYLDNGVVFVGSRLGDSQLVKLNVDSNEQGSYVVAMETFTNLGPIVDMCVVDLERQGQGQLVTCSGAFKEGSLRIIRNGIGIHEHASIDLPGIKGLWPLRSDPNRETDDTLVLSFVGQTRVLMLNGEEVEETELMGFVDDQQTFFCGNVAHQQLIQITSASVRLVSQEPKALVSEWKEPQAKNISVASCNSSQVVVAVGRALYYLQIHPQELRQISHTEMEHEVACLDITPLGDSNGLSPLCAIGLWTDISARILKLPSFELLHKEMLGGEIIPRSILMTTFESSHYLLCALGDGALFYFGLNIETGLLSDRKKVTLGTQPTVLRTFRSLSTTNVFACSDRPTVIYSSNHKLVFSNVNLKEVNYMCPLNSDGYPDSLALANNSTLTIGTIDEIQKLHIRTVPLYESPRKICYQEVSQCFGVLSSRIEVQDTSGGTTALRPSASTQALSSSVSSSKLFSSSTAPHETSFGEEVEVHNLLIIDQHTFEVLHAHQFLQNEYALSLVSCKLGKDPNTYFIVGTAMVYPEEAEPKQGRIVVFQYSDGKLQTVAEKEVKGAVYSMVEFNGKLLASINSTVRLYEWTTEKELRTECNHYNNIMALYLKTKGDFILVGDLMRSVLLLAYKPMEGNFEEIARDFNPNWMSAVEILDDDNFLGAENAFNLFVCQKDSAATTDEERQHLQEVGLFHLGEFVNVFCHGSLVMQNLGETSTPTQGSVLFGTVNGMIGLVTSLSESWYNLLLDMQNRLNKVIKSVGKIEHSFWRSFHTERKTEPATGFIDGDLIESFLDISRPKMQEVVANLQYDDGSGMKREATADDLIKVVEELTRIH

Structure (SMILES)	inhibition at 0.04 µM [%]	inhibition at 0.2 µM [%]
CNc1ccc(C(=O)Nc2ccc(C)c(C(C)C)n2)c(NCCCCCNC(=O)CN2CCN(c3ccc(Nc4ncc5c(C)c(C(C)=O)c(=O)n(C6CCCC6)c5n4)nc3)CC2)n1 [CPD-111, 2-((5-(2-(4-(6-((6-Acetyl-8-cyclopentyl-5-methyl-7-oxo-7,8-dihydropyrido[2,3-d]pyrimidin-2-yl)amino)pyridin-3-yl)piperazin-1-yl)acetamido)pentyl)amino)-N-(6-isopropyl-5-methylpyridin-2-yl)-6-(methylamino)nicotinamide]	< 30	50 to 80
CNc1ccc(C(=O)Nc2ccc(Cl)c(C3CC3)n2)c(NCCCCCNC(=O)CN2CCN(c3ccc(Nc4ncc5c(C)c(C(C)=O)c(=O)n(C6CCCC6)c5n4)nc3)CC2)n1 [CPD-112, 2-((5-(2-(4-(6-((6-Acetyl-8-cyclopentyl-5-methyl-7-oxo-7,8-dihydropyrido[2,3-d]pyrimidin-2-yl)amino)pyridin-3-yl)piperazin-1-yl)acetamido)pentyl)amino)-N-(5-chloro-6-cyclopropylpyridin-2-yl)-6-(methylamino)nicotinamide]	< 30	< 30
CNc1ccc(C(=O)Nc2ccc(F)c(C3CC3)n2)c(NCCCCCNC(=O)CN2CCN(c3ccc(Nc4ncc5c(C)c(C(C)=O)c(=O)n(C6CCCC6)c5n4)nc3)CC2)n1 [CPD-113, 2-((5-(2-(4-(6-((6-Acetyl-8-cyclopentyl-5-methyl-7-oxo-7,8-dihydropyrido[2,3-d]pyrimidin-2-yl)amino)pyridin-3-yl)piperazin-1-yl)acetamido)pentyl)amino)-N-(6-cyclopropyl-5-fluoropyridin-2-yl)-6-(methylamino)nicotinamide]	30 to 50	50 to 80
CNc1ccc(C(=O)Nc2nc(C3CC3)ccc2F)c(NC2CC3(CC(NC(=O)CN4CCN(c5ccc(Nc6ncc7c(C)c(C(C)=O)c(=O)n(C8CCCC8)c7n6)nc5)CC4)C3)C2)n1 (centres unmarked) [CPD-114, 2-((6-(2-(4-(6-((6-Acetyl-8-cyclopentyl-5-methyl-7-oxo-7,8-dihydropyrido[2,3-d]pyrimidin-2-yl)amino)pyridin-3-yl)piperazin-1-yl)acetamido)spiro[3.3]heptan-2-yl)amino)-N-(6-cyclopropyl-3-fluoropyridin-2-yl)-6-(methylamino)nicotinamide]	< 30	< 30
CC(=O)c1c(C)c2cnc(Nc3ccc(N4CCN(CC(=O)NC5CC6(C5)CC(Nc5nc(C(C)C)ccc5C(=O)Nc5cccc(C7CC7)n5)C6)CC4)cn3)nc2n(C2CCCC2)c1=O (centres unmarked) [CPD-119, 2-((6-(2-(4-(6-((6-Acetyl-8-cyclopentyl-5-methyl-7-oxo-7,8-dihydropyrido[2,3-d]pyrimidin-2-yl)amino)pyridin-3-yl)piperazin-1-yl)acetamido)spiro[3.3]heptan-2-yl)amino)-N-(6-cyclopropylpyridin-2-yl)-6-isopropylnicotinamide]	< 30	30 to 50
CC(=O)c1c(C)c2cnc(Nc3ccc(N4CCN(CC(=O)NC5CC6(C5)CC(Nc5nc(C)ccc5C(=O)Nc5cccc(C7CC7)n5)C6)CC4)cn3)nc2n(C2CCCC2)c1=O (centres unmarked) [CPD-120, 2-((6-(2-(4-(6-((6-Acetyl-8-cyclopentyl-5-methyl-7-oxo-7,8-dihydropyrido[2,3-d]pyrimidin-2-yl)amino)pyridin-3-yl)piperazin-1-yl)acetamido)spiro[3.3]heptan-2-yl)amino)-N-(6-cyclopropylpyridin-2-yl)-6-methylnicotinamide]	< 30	30 to 50
CC(=O)c1c(C)c2cnc(Nc3ccc(N4CCN(CC(=O)NC5CC6(C5)CC(Nc5nc(C(F)(F)F)ccc5C(=O)Nc5cccc(C7CC7)n5)C6)CC4)cn3)nc2n(C2CCCC2)c1=O (centres unmarked) [CPD-121, 2-((6-(2-(4-(6-((6-Acetyl-8-cyclopentyl-5-methyl-7-oxo-7,8-dihydropyrido[2,3-d]pyrimidin-2-yl)amino)pyridin-3-yl)piperazin-1-yl)acetamido)spiro[3.3]heptan-2-yl)amino)-N-(6-cyclopropylpyridin-2-yl)-6-(trifluoromethyl)nicotinamide]	< 30	30 to 50
CNc1ccc(C(=O)Nc2cccc(=O)[nH]2)c(NC2CC3(CC(NC(=O)CN4CCN(c5ccc(Nc6ncc7c(C)c(C(C)=O)c(=O)n(C8CCCC8)c7n6)nc5)CC4)C3)C2)n1 (centres unmarked) [CPD-122, 2-((6-(2-(4-(6-((6-Acetyl-8-cyclopentyl-5-methyl-7-oxo-7,8-dihydropyrido[2,3-d]pyrimidin-2-yl)amino)pyridin-3-yl)piperazin-1-yl)acetamido)spiro[3.3]heptan-2-yl)amino)-6-(methylamino)-N-(6-oxo-1,6-dihydropyridin-2-yl)nicotinamide]	30 to 50	50 to 80

Further lines, results first:

inhibition at 0.04 µM [%]	inhibition at 0.2 µM [%]	Structure (SMILES)
30 to 50	50 to 80	CNc1ccc(C(=O)Nc2ccc(N(C)C)nn2)c(NC2CCN(CCNC(=O)CN3CCN(c4ccc(Nc5ncc6c(C)c(C(C)=O)c(=O)n(C7CCCC7)c6n5)nc4)CC3)C2)n1 (centres unmarked) [CPD-106, 2-((1-(2-(2-(4-(6-((6-Acetyl-8-cyclopentyl-5-methyl-7-oxo-7,8-dihydropyrido[2,3-d]pyrimidin-2-yl)amino)pyridin-3-yl)piperazin-1-yl)acetamido)ethyl)pyrrolidin-3-yl)amino)-N-(6-(dimethylamino)pyridazin-3-yl)-6-(methylamino)nicotinamide]
< 30	< 30	CNc1ccc(C(=O)Nc2ccc(N(C)C)nn2)c(NC2CN(CCNC(=O)CN3CCN(c4ccc(Nc5ncc6c(C)c(C(C)=O)c(=O)n(C7CCCC7)c6n5)nc4)CC3)C2)n1 [CPD-107, 2-((1-(2-(2-(4-(6-((6-Acetyl-8-cyclopentyl-5-methyl-7-oxo-7,8-dihydropyrido[2,3-d]pyrimidin-2-yl)amino)pyridin-3-yl)piperazin-1-yl)acetamido)ethyl)azetidin-3-yl)amino)-N-(6-(dimethylamino)pyridazin-3-yl)-6-(methylamino)nicotinamide]
30 to 50	30 to 50	CNc1ccc(C(=O)Nc2ccc(OC)nn2)c(NCCCCCNC(=O)CN2CCN(c3ccc(Nc4ncc5c(C)c(C(C)=O)c(=O)n(C6CCCC6)c5n4)nc3)CC2)n1 [CPD-108, 2-((5-(2-(4-(6-((6-Acetyl-8-cyclopentyl-5-methyl-7-oxo-7,8-dihydropyrido[2,3-d]pyrimidin-2-yl)amino)pyridin-3-yl)piperazin-1-yl)acetamido)pentyl)amino)-N-(6-methoxypyridazin-3-yl)-6-(methylamino)nicotinamide]
50 to 80	50 to 80	CNc1ccc(C(=O)Nc2ccc(C)c(C)n2)c(NCCCCCNC(=O)CN2CCN(c3ccc(Nc4ncc5c(C)c(C(C)=O)c(=O)n(C6CCCC6)c5n4)nc3)CC2)n1 [CPD-109, 2-((5-(2-(4-(6-((6-Acetyl-8-cyclopentyl-5-methyl-7-oxo-7,8-dihydropyrido[2,3-d]pyrimidin-2-yl)amino)pyridin-3-yl)piperazin-1-yl)acetamido)pentyl)amino)-N-(5,6-dimethylpyridin-2-yl)-6-(methylamino)nicotinamide]
< 30	50 to 80	CNc1ccc(NC(=O)c2ccc(NC)nc2NCCCCCNC(=O)CN2CCN(c3ccc(Nc4ncc5c(C)c(C(C)=O)c(=O)n(C6CCCC6)c5n4)nc3)CC2)nn1 [CPD-110, 2-((5-(2-(4-(6-((6-Acetyl-8-cyclopentyl-5-methyl-7-oxo-7,8-dihydropyrido[2,3-d]pyrimidin-2-yl)amino)pyridin-3-yl)piperazin-1-yl)acetamido)pentyl)amino)-6-(methylamino)-N-(6-(methylamino)pyridazin-3-yl)nicotinamide]
30 to 50	30 to 50	CNc1ccc(C(=O)Nc2ccc(C)c(OC)n2)c(NCCCCCNC(=O)CN2CCN(c3ccc(Nc4ncc5c(C)c(C(C)=O)c(=O)n(C6CCCC6)c5n4)nc3)CC2)n1 [CPD-116, 2-((5-(2-(4-(6-((6-Acetyl-8-cyclopentyl-5-methyl-7-oxo-7,8-dihydropyrido[2,3-d]pyrimidin-2-yl)amino)pyridin-3-yl)piperazin-1-yl)acetamido)pentyl)amino)-N-(6-methoxy-5-methylpyridin-2-yl)-6-(methylamino)nicotinamide]
50 to 80	50 to 80	CNc1ccc(C(=O)Nc2ccc(N(C)C)nn2)c(NC2CC3(C2)CN(C(=O)C(C)CN2CCN(c4ccc(Nc5ncc6c(C)c(C(C)=O)c(=O)n(C7CCCC7)c6n5)nc4)CC2)C3)n1 (centres unmarked) [CPD-117, 2-((2-(3-(4-(6-((6-Acetyl-8-cyclopentyl-5-methyl-7-oxo-7,8-dihydropyrido[2,3-d]pyrimidin-2-yl)amino)pyridin-3-yl)piperazin-1-yl)-2-methylpropanoyl)-2-azaspiro[3.3]heptan-6-yl)amino)-N-(6-(dimethylamino)pyridazin-3-yl)-6-(methylamino)nicotinamide]
50 to 80	50 to 80	CNc1ccc(C(=O)Nc2ccc(N(C)C)nn2)c(NC2CC3(C2)CN(C(=O)C(C)(C)CN2CCN(c4ccc(Nc5ncc6c(C)c(C(C)=O)c(=O)n(C7CCCC7)c6n5)nc4)CC2)C3)n1 [CPD-118, 2-((2-(3-(4-(6-((6-Acetyl-8-cyclopentyl-5-methyl-7-oxo-7,8-dihydropyrido[2,3-d]pyrimidin-2-yl)amino)pyridin-3-yl)piperazin-1-yl)-2,2-dimethylpropanoyl)-2-azaspiro[3.3]heptan-6-yl)amino)-N-(6-(dimethylamino)pyridazin-3-yl)-6-(methylamino)nicotinamide]
